# Assays:
# [1] = test system: PCSK9[1:33]-GFP translation; assay: Wheat germ lysate (WG) IVTT microplate activity assay, PCSK9[1:33]-GFP template; type: biochemical; conditions: for inhibition of PCSK9[1:33]-GFP translation (in words) / IC50: WG IVTT; for IC50: PCSK9[1:33]-GFP template, triplicate, ± standard deviation of the mean
# Description: A commercially available wheat germ lysate (WG) IVTT system was employed to assay translation inhibition. Translation activity was detected via a GFP reporter, and the assay was miniaturized to picoliter-scale microfluidic droplets (Figure 1A,B). […] PCSK9 and RPL27 were truncated to the first 33 and 32 amino acids, respectively (PCSK9[1:33] and RPL27[1:32]). The sequences contain distinct PF846 stall sites and were both fused to a GFP reporter. The GFP reporter and a frameshift mutant of PCSK9[1:33] (PCSK9-FS[1:33]), which mutates the nascent chain sequence while maintaining a nearly identical mRNA sequence, were included as negative controls.[13] […] Sequence sensitivity was further confirmed by an N-terminal deletion series of PCSK9[1:33]-GFP; deletion of N-terminal residues increasingly ablated PCSK9[1:33]-GFP translation sensitivity to PF846 (Figure 1D). The WG IVTT assay was miniaturized using a previously described microfluidic circuit modified for longer incubation times (Figure S1)[27] using PF846 as a positive control compound, and assay statistical quality was calculated (Z′=0.7) (Figure 1E). To confirm detection of translation inhibition from library beads, hygromycin B, a nonselective aminoglycoside translation inhibitor, was coupled to beads displaying a photocleavable linker (PC-HygB). UV irradiation releases hygromycin from the bead, allowing it to interact with the WG IVTT assay in the droplet. PC-HygB bead photocleavage supernatant inhibited PCSK9[1:33]-GFP translation both in a microplate assay and in microfluidic droplets (Figure 1F,G, S2). Assay statistical quality using PC-HygB positive control beads was similarly calculated (Z′ = 0.75, Figure 1H). […]
# 436 Microplate IVTT Assays
# 437 Wheat germ lysate IVTT plate assays were prepared as 5 µL reactions. Wheat germ lysate
# 438 (3 µL) was added to test compound or vehicle control (1 µL) in a 384-well black microplate
# 439 and the reaction was incubated (10 min, RT). Template (1 µL) was added and reaction
# 440 progress was immediately monitored (λex = 480 nm, λem = 530 nm, 27 °C, 2 h). Rela-
# 441 tive activity was calculated using the slope of fluorescence increase over time (at 15–30
# 442 min post reaction initiation) for compound samples relative to that of the DMSO vehicle
# 443 control. […]
# [2] = test system: PCSK9-FS[1:33]-GFP translation; assay: Microfluidic activity-based DEL counter screen in WG IVTT droplets, PCSK9-FS[1:33]-GFP, hit k class by sequencing; type: biochemical, wheat germ; conditions: number of times hit structure observed on distinct beads, summed across PCSK9-FS[1:33]-GFP screens; *** p < 0.001, NS not significant
# Description: The validated PF846-inspired library was screened to discover novel translation inhibitors. DEL beads were encapsulated in microfluidic droplets of WG IVTT and irradiated with UV in flow to liberate DEL members into the droplets. The photodosed droplets were incubated and sorted based on fluorescence.[25] PCSK9[1:33]-GFP was chosen as a proof-of-concept target, and PCSK9-FS[1:33]-GFP was used as a counter screen target to identify nonselective compounds. PC-HygB were mixed with DEL beads and screened in the microfluidic device for inhibitors of translation. […] Droplet generation, bead introduction, and library and control bead hit rate were uniform during the screen (Figure 3, bottom).
# Hit collection DNA tags from the PCSK9[1:33]-GFP and PCSK9-FS[1:33]-GFP screens were sequenced to deduce the structures of molecules that inhibited PCSK9[1:33]- or PCSK9-FS[1:33]-GFP translation. Hit structure k class, the number of times a given hit structure is observed on distinct beads,[31] was summed across screens and visualized as a heat map (Figure 4A). […] The combined hit sets for the two templates contained 121 unique hits with k ≥ 17 across the two screening campaigns. The most frequently observed cycle 1 starter BBs were 1 and 2, which share an 8-methylisoquinoline moiety, but differ in the vector for cycle 2 carboxylic acid connection, and 3, which contains an N-methylazaindole moiety. The most frequently identified cycle 2 tails included carboxylic acids 4–7. […] Substituted pyrazole 6 and pyridyl-benzimidazole 7 also appeared frequently with the aforementioned starters. There were 5 hits that appeared with high k class in both PCSK9[1:33]-GFP and PCSK9[1:33]-FS-GFP screening campaigns.
# 319 the droplet experiment to homogenize the bead suspension. Syringes were connected to
# 320 fluidic inputs with microbore Tygon tubing (0.01” x 0.03” IC × OD). Droplet generation oil
# 321 (OIL1) was 1% picosurf in HFE. Spacing (OIL2) and pinning (OIL3) oils were neat HFE.
# 322 Assay reagents were driven by displacement syringe pumps (Legato 100, KD Scientific,
# 323 Holliston, MA) through the circuit. OIL2 and OIL3 were initially flowed (22 µL/min and
# 324 12 µL/min, respectively) and hit and waste shunt tubing were clamped to backfill the
# 325 circuit. Once the incubator was filled with oil, the hit and waste tubing were unclamped
# 326 and back shunts were clamped. AQ1, AQ2, and OIL1 flows were initiated (960 nL/min,
# 327 640 nL/min, and 1200 nL/min, respectively) and held constant during the screen. Once
# 328 droplet generation equilibrated (∼10 min), the main shunt was clamped and droplets
# 329 started to fill the incubator. When droplets filled the incubator and entered the sorting
# 330 region, data acquisition and screening was initiated.
# 331 The custom confocal LIF detection setup and LabView code were previously described.S3
# 332 Briefly, photon counting PMTs (H7828, Hamamatsu, Middlesex, NJ) were used to detect
# 333 droplet fluorescence emission using a custom two-channel (520 and 570 nm) confocal mi-
# 334 croscope with laser excitation (488 nm, 20 mW, OBIS-488 20LS, Coherent Inc., Santa Clara,
# 335 CA). A data acquisition board (DAQ, NI, USB-6341, National Instruments) was used to
# 336 digitize PMT signal, which was binned into counts, and in-house LabView code was used
# 337 to control acquisition and execute droplet sorting decisions. Signal was smoothed in real-
# 338 time using median-filter smoothing (width = 3). Droplets were identified by the 570 nm
# 339 channel signal and the maximum signal in the 520 nm channel (max = countsn-1 when
# 340 countsn <countsn-1) was set as the droplet peak value. A roaming sort threshold was
# 342 the 520 nm channel. The threshold was calculated as µ - 5σ, where µ andσ were the mean
# 343 and standard deviation of the previous 300 droplets’ fluorescence values, respectively. Hit
# 344 droplets were not included in the calculation of droplet mean and standard deviation. A […]
# [3] = test system: PCSK9[1:33]-GFP translation from mRNA; assay: IVTT activity assay of PCSK9[1:33]-GFP initiated with RNA template; type: biochemical
# Description: Figure S10. Activity of compounds 8 and 9 on transcription. (A) Screening hits 8 and 9 were analyzed in dose-response IVTT activity assays of PCSK9[1:33]-GFP initiated with DNA (black) and RNA (gray) template. (B) Products of PCSK9[1:33]-GFP T7 transcription reactions incubated with DMSO, screening hits 8 and 9, or PF846 were visualized on a 1.5% agarose gel
# (1 picture or pasted object on this page, not shown here)
Structure (SMILES),inhibition of PCSK9[1:33]-GFP translation (in words) [1],IC50 [1],k class PCSK9-FS [2],activity when translation initiated from mRNA rather than plasmid DNA (in words) [3],inhibition of translation of all reporters (in words) ([1]; all IVTT reporters tested)
Cc1cccc2ccnc(N(C(=O)[C@H]3CCCN(C(=O)c4cccc5c(C#N)c[nH]c45)C3)[C@@H]3CCCNC3)c12 [Compound 8],moderately inhibited,1.3 ± 0.2 µM,0,active,–
Cc1cccc2ccnc(N(C(=O)C3CCN(C(=O)c4cccc5c(C#N)c[nH]c45)CC3)[C@@H]3CCCNC3)c12 [Compound 9],similarly active on both templates,19.6 ± 0.2 µM,18,inactive,universally and completely inhibited

# From publication PMC11503492, “Activity-Based DNA-Encoded Library Screening for Selective Inhibitors of Eukaryotic Translation” (ACS Central Science, 2024)
